Laboratory results: the supplement of paper PMC10307832

Columns and labels:
Assay in all cases: relative viability (nuclei count vs DMSO), 5 days (fraction); higher = more cells survive
BEN = test system: BEN
Procedure, shortened: (§1)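 Lung cancer cell lines in 1536-well plates were dosed by pin tool the day after seeding, either with one drug alone or with a fixed anchor-drug dose plus five library-drug doses (not always all listed) in √10 steps. After 5 days, cells were fixed and their nuclei stained in one step (final 0.05% Triton X-100, 1% formaldehyde, 1 ug/ml Hoechst), then counted on 4× images. Relative viability is the nuclei count in treated wells divided by that in vehicle wells. Values are medians of duplicate plates.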

EKVX = test system: EKVX
Procedure, shortened: as §1

HARA = test system: HARA
Procedure, shortened: as §1

HCC-366 = test system: HCC-366
Procedure, shortened: as §1

HCC-827 = test system: HCC-827
Procedure, shortened: as §1

LOU-NH91 = test system: LOU-NH91
Procedure, shortened: as §1

NCI-H1355 = test system: NCI-H1355
Procedure, shortened: as §1

NCI-H1437 = test system: NCI-H1437
Procedure, shortened: as §1

NCI-H1734 = test system: NCI-H1734
Procedure, shortened: as §1

NCI-H1792 = test system: NCI-H1792
Procedure, shortened: as §1

NCI-H1993 = test system: NCI-H1993
Procedure, shortened: as §1

NCI-H2009 = test system: NCI-H2009
Procedure, shortened: as §1

NCI-H2087 = test system: NCI-H2087
Procedure, shortened: as §1

NCI-H2170 = test system: NCI-H2170
Procedure, shortened: as §1

NCI-H2405 = test system: NCI-H2405
Procedure, shortened: as §1

NCI-H647 = test system: NCI-H647
Procedure, shortened: as §1

NCI-H661 = test system: NCI-H661
Procedure, shortened: as §1

SK-LU-1 = test system: SK-LU-1
Procedure, shortened: as §1

SK-MES-1 = test system: SK-MES-1
Procedure, shortened: as §1

SMILES: Nc1ccn([C@@H]2O[C@H](CO)[C@@H](O)[C@@H]2O)c(=O)n1 [Cytarabine] + C[C@@H](Oc1cc(-c2cnn(C3CCNCC3)c2)cnc1N)c1c(Cl)ccc(F)c1Cl [Crizotinib] (partner 1 µM)
- relative viability (BEN; first compound 0.005 µM): 0.605
- relative viability (BEN; first compound 0.01581 µM): 0.66
- relative viability (BEN; first compound 0.05 µM): 0.449
- relative viability (BEN; first compound 0.1581 µM): 0.311
- relative viability (BEN; first compound 0.5 µM): 0.292
- relative viability (EKVX; first compound 0.005 µM): 0.802
- relative viability (EKVX; first compound 0.01581 µM): 1.07
- relative viability (EKVX; first compound 0.05 µM): 0.827
- relative viability (EKVX; first compound 0.1581 µM): 0.368
- relative viability (EKVX; first compound 0.5 µM): 0.287
- relative viability (HARA; first compound 0.005 µM): 1.01
- relative viability (HARA; first compound 0.01581 µM): 0.682
- relative viability (HARA; first compound 0.05 µM): 0.333
- relative viability (HARA; first compound 0.1581 µM): 0.223
- relative viability (HARA; first compound 0.5 µM): 0.169
- relative viability (HCC-366; first compound 0.005 µM): 0.405
- relative viability (HCC-366; first compound 0.01581 µM): 0.43
- relative viability (HCC-366; first compound 0.05 µM): 0.216
- relative viability (HCC-366; first compound 0.1581 µM): 0.026
- relative viability (HCC-366; first compound 0.5 µM): 0.0284
- relative viability (HCC-827; first compound 0.005 µM): 0.593
- relative viability (HCC-827; first compound 0.01581 µM): 0.478
- relative viability (HCC-827; first compound 0.05 µM): 0.477
- relative viability (HCC-827; first compound 0.1581 µM): 0.197
- relative viability (HCC-827; first compound 0.5 µM): 0.249
- relative viability (LOU-NH91; first compound 0.005 µM): 0.753
- relative viability (LOU-NH91; first compound 0.01581 µM): 0.714
- relative viability (LOU-NH91; first compound 0.05 µM): 0.637
- relative viability (LOU-NH91; first compound 0.1581 µM): 0.511
- relative viability (LOU-NH91; first compound 0.5 µM): 0.56
- relative viability (NCI-H1355; first compound 0.005 µM): 0.998
- relative viability (NCI-H1355; first compound 0.01581 µM): 1.03
- relative viability (NCI-H1355; first compound 0.05 µM): 0.973
- relative viability (NCI-H1355; first compound 0.1581 µM): 0.46
- relative viability (NCI-H1355; first compound 0.5 µM): 0.399
- relative viability (NCI-H1437; first compound 0.005 µM): 0.576
- relative viability (NCI-H1437; first compound 0.01581 µM): 0.817
- relative viability (NCI-H1437; first compound 0.05 µM): 0.472
- relative viability (NCI-H1437; first compound 0.1581 µM): 0.258
- relative viability (NCI-H1437; first compound 0.5 µM): 0.156
- relative viability (NCI-H1734; first compound 0.005 µM): 0.473
- relative viability (NCI-H1734; first compound 0.01581 µM): 0.326
- relative viability (NCI-H1734; first compound 0.05 µM): 0.23
- relative viability (NCI-H1734; first compound 0.1581 µM): 0.143
- relative viability (NCI-H1734; first compound 0.5 µM): 0.157
- relative viability (NCI-H1792; first compound 0.005 µM): 0.624
- relative viability (NCI-H1792; first compound 0.01581 µM): 0.882
- relative viability (NCI-H1792; first compound 0.05 µM): 0.861
- relative viability (NCI-H1792; first compound 0.1581 µM): 0.53
- relative viability (NCI-H1792; first compound 0.5 µM): 0.465
- relative viability (NCI-H1993; first compound 0.005 µM): 0.92
- relative viability (NCI-H1993; first compound 0.01581 µM): 0.785
- relative viability (NCI-H1993; first compound 0.05 µM): 0.845
- relative viability (NCI-H1993; first compound 0.1581 µM): 0.614
- relative viability (NCI-H1993; first compound 0.5 µM): 0.566
- relative viability (NCI-H2009; first compound 0.005 µM): 1.02
- relative viability (NCI-H2009; first compound 0.01581 µM): 1.01
- relative viability (NCI-H2009; first compound 0.05 µM): 0.955
- relative viability (NCI-H2009; first compound 0.1581 µM): 0.884
- relative viability (NCI-H2009; first compound 0.5 µM): 0.298
- relative viability (NCI-H2087; first compound 0.005 µM): 0.702
- relative viability (NCI-H2087; first compound 0.01581 µM): 0.886
- relative viability (NCI-H2087; first compound 0.05 µM): 0.69
- relative viability (NCI-H2087; first compound 0.1581 µM): 0.731
- relative viability (NCI-H2087; first compound 0.5 µM): 0.537
- relative viability (NCI-H2170; first compound 0.01581 µM): 0.925
- relative viability (NCI-H2170; first compound 0.05 µM): 0.912
- relative viability (NCI-H2170; first compound 0.1581 µM): 0.605
- relative viability (NCI-H2170; first compound 0.5 µM): 0.483
- relative viability (NCI-H2405; first compound 0.005 µM): 0.754
- relative viability (NCI-H2405; first compound 0.01581 µM): 0.693
- relative viability (NCI-H2405; first compound 0.05 µM): 0.592
- relative viability (NCI-H2405; first compound 0.1581 µM): 0.464
- relative viability (NCI-H2405; first compound 0.5 µM): 0.327
- relative viability (NCI-H647; first compound 0.005 µM): 0.613
- relative viability (NCI-H647; first compound 0.01581 µM): 0.518
- relative viability (NCI-H647; first compound 0.05 µM): 0.243
- relative viability (NCI-H647; first compound 0.1581 µM): 0.11
- relative viability (NCI-H647; first compound 0.5 µM): 0.116
- relative viability (NCI-H661; first compound 0.005 µM): 0.963
- relative viability (NCI-H661; first compound 0.01581 µM): 1.15
- relative viability (NCI-H661; first compound 0.1581 µM): 0.975
- relative viability (NCI-H661; first compound 0.5 µM): 0.632
- relative viability (SK-LU-1; first compound 0.005 µM): 0.957
- relative viability (SK-LU-1; first compound 0.01581 µM): 0.83
- relative viability (SK-LU-1; first compound 0.05 µM): 0.694
- relative viability (SK-LU-1; first compound 0.1581 µM): 0.605
- relative viability (SK-LU-1; first compound 0.5 µM): 0.398
- relative viability (SK-MES-1; first compound 0.005 µM): 0.706
- relative viability (SK-MES-1; first compound 0.01581 µM): 0.741
- relative viability (SK-MES-1; first compound 0.05 µM): 0.367
- relative viability (SK-MES-1; first compound 0.1581 µM): 0.274
- relative viability (SK-MES-1; first compound 0.5 µM): 0.219
